# Test results as given in patent US20190022016A1, “COMPOSITIONS FOR SUSTAINED RELEASE OF ANTI-GLAUCOMA AGENTS TO CONTROL INTRAOCULAR PRESSURE” (The Johns Hopkins University, priority 2016, published 2019).
# Experiments:
# [1] = In vitro drug release from microparticles in PBS; format: physicochemical; details: for duration of in vitro drug release: PBS pH 7.4, 37° C., infinite sink, PEG3-PSA microparticles, 2% PEG; for drug released during the first 6 days / release over the initial 24 hours: from PEG3-PSA, infinite sink conditions
# Description: PEG3-PSA is a polyanhydride polymer that undergoes surface erosion to deliver continuous drug release and has been previously used for ocular delivery. Particle disappearance parallels drug release due to surface erosion. Particles were suspended in phosphate buffered saline (PBS, pH 7.4) at 5 mg/mL and incubated at 37° C. on a rotating platform (140 RPM). At selected time points, supernatant was collected by centrifugation (8,000×g for 5 min) and particles were resuspended in fresh PBS. Drug content was measured by spectraphotometer.
# [2] = systemic; cited from earlier work
duration of in vitro drug release [1] [days],drug released during the first 6 days [1] [%],release over the initial 24 hours [1] [%],SMILES,IOP reduction [2] [%]
12,80,12,CCN[C@H]1CN(CCCOC)S(=O)(=O)c2sc(S(N)(=O)=O)cc21 [brinzolamide],
,,,CC(=O)Nc1nnc(S(N)(=O)=O)s1 [acetazolamide],30
12,80,18,CCN[C@H]1C[C@H](C)S(=O)(=O)c2sc(S(N)(=O)=O)cc21 [dorzolamide],
